Numbers after ± are expanded uncertainties. Each block holds one compound with its values, some of them ahead of it.
Conditions: Liquid, Ebulliometric method (Recirculating still)

- vapor or sublimation pressure (470.22 K): 101.3 ± 0.5 kPa
Structure (SMILES): OCCO [1,2-ethanediol]

Structure (SMILES): Cc1ccc(C)cc1 [1,4-dimethylbenzene]
- vapor or sublimation pressure (411.21 K): 101.3 ± 0.5 kPa

- vapor or sublimation pressure (478.95 K): 101.3 ± 0.5 kPa
Structure (SMILES): CC(C)(CO)CO [2,2-dimethyl-1,3-propanediol]

— the NIST ThermoML archive (doi:10.1021/acs.jced.5b01044)
